Assay results reported in US6444615B1, “Herbicidal imidazolidinetrione and thioxo-imidazolidinediones” (Dow AgroSciences LLC, priority 2000, dated 2002).

Columns and labels:
[1] = system: Nutsedge, (yellow) (Cyperus esculentus); assay: Herbicidal pre-emergence test, Nutsedge (yellow); format: in vivo; conditions: 1200 g/ha, scale of 0-100, 0 no activity, 100 total control, about two or four weeks after application
Procedure: (§1) Listed below, a typical planting design for the test, consisting of four monocot weeds, four dicot weeds and one sedge weed. [table] For each compound, evaluation tests were carried out according to the following procedures: For preemergence tests, immediately after planting, the test compound was sprayed directly onto the soil surface. The flats or pots were placed in the greenhouse and then watered. For postemergence tests, seeds were allowed to germinate and grow for 10 to 21 days before application. The test plants were selected for uniformity, size and stage of development. The test plants were then treated with the test compound, returned to the greenhouse and watered. Untreated plants were used as a comparison. The compound to be evaluated was dissolved in an appropriate solvent, usually acetone, or a formulation of the evaluated compounds as described above, was added to the water, and sprayed over the flats or pots using a carrier volume equivalent to 187 or 468 liters per hectare to give a rate of application in grams per hectare (g/ha). About two or four weeks after application of the test compounds, the state of the plant was observed. Each species was evaluated on a scale of 0-100 in which 0 equals no activity and 100 equals total control.

[2] = system: Crabgrass (large) (Digitaria sanguinalis); assay: Herbicidal pre-emergence test, Crabgrass (large); format: in vivo; conditions: 1200 g/ha, scale of 0-100, 0 no activity, 100 total control, about two or four weeks after application
Procedure: as §1

[3] = system: Barnyardgrass (Echinochloa crusgalli); assay: Herbicidal post-emergence test, Barnyardgrass; format: in vivo; conditions: 1200 g/ha, scale of 0-100, 0 no activity, 100 total control, about two or four weeks after application
Procedure: as §1

[4] = system: Crabgrass (large) (Digitaria sanguinalis); assay: Herbicidal post-emergence test, Crabgrass (large); format: in vivo; conditions: 1200 g/ha, scale of 0-100, 0 no activity, 100 total control, about two or four weeks after application
Procedure: as §1

[5] = system: Velvetleaf (Abutilon theophrasti); assay: Herbicidal post-emergence test, Velvetleaf; format: in vivo; conditions: 1200 g/ha, scale of 0-100, 0 no activity, 100 total control, about two or four weeks after application
Procedure: as §1

[6] = system: Hairy Beggarticks (Bidens pilosa); assay: Herbicidal post-emergence test, Hairy Beggarticks; format: in vivo; conditions: 1200 g/ha, scale of 0-100, 0 no activity, 100 total control, about two or four weeks after application
Procedure: as §1

[7] = system: Velvetleaf (Abutilon theophrasti); assay: Herbicidal pre-emergence test, Velvetleaf; format: in vivo; conditions: 1200 g/ha, scale of 0-100, 0 no activity, 100 total control, about two or four weeks after application
Procedure: as §1

[8] = system: Nightshade, (black) (Solanum nigrum); assay: Herbicidal pre-emergence test, Nightshade (black); format: in vivo; conditions: 1200 g/ha, scale of 0-100, 0 no activity, 100 total control, about two or four weeks after application
Procedure: as §1

[9] = system: Foxtail, (green) (Setaria viridis); assay: Herbicidal post-emergence test, Foxtail (green); format: in vivo; conditions: 1200 g/ha, scale of 0-100, 0 no activity, 100 total control, about two or four weeks after application
Procedure: as §1

[10] = system: Smartweed, (pale) (Polygonum lapathifolium); assay: Herbicidal pre-emergence test, Smartweed (pale); format: in vivo; conditions: 1200 g/ha, scale of 0-100, 0 no activity, 100 total control, about two or four weeks after application
Procedure: as §1

[11] = system: Hairy Beggarticks (Bidens pilosa); assay: Herbicidal pre-emergence test, Hairy Beggarticks; format: in vivo; conditions: 1200 g/ha, scale of 0-100, 0 no activity, 100 total control, about two or four weeks after application
Procedure: as §1

[12] = system: Barnyardgrass (Echinochloa crusgalli); assay: Herbicidal pre-emergence test, Barnyardgrass; format: in vivo; conditions: 1200 g/ha, scale of 0-100, 0 no activity, 100 total control, about two or four weeks after application
Procedure: as §1

[13] = system: Perennial Ryegrass (Lolium perenne); assay: Herbicidal pre-emergence test, Perennial Ryegrass; format: in vivo; conditions: 1200 g/ha, scale of 0-100, 0 no activity, 100 total control, about two or four weeks after application
Procedure: as §1

[14] = system: Perennial Ryegrass (Lolium perenne); assay: Herbicidal post-emergence test, Perennial Ryegrass; format: in vivo; conditions: 1200 g/ha, scale of 0-100, 0 no activity, 100 total control, about two or four weeks after application
Procedure: as §1

[15] = system: Nightshade, (black) (Solanum nigrum); assay: Herbicidal post-emergence test, Nightshade (black); format: in vivo; conditions: 1200 g/ha, scale of 0-100, 0 no activity, 100 total control, about two or four weeks after application
Procedure: as §1

[16] = system: Smartweed, (pale) (Polygonum lapathifolium); assay: Herbicidal post-emergence test, Smartweed (pale); format: in vivo; conditions: 1200 g/ha, scale of 0-100, 0 no activity, 100 total control, about two or four weeks after application
Procedure: as §1

[17] = system: Foxtail, (green) (Setaria viridis); assay: Herbicidal pre-emergence test, Foxtail (green); format: in vivo; conditions: 1200 g/ha, scale of 0-100, 0 no activity, 100 total control, about two or four weeks after application
Procedure: as §1

[18] = system: Nutsedge, (yellow) (Cyperus esculentus); assay: Herbicidal post-emergence test, Nutsedge (yellow); format: in vivo; conditions: 1200 g/ha, scale of 0-100, 0 no activity, 100 total control, about two or four weeks after application
Procedure: as §1

Compound | melting point [°C] | Herbicidal Activity NUT (pre-emergence) [1] | Herbicidal Activity CRB (pre-emergence) [2] | Herbicidal Activity BYG (post-emergence) [3] | Herbicidal Activity CRB (post-emergence) [4] | Herbicidal Activity VEL (post-emergence) [5] | Herbicidal Activity BID (post-emergence) [6] | Herbicidal Activity VEL (pre-emergence) [7] | Herbicidal Activity NS (pre-emergence) [8] | Herbicidal Activity FOX (post-emergence) [9] | Herbicidal Activity SMT (pre-emergence) [10] | Herbicidal Activity BID (pre-emergence) [11] | Herbicidal Activity BYG (pre-emergence) [12] | Herbicidal Activity RYE (pre-emergence) [13] | Herbicidal Activity RYE (post-emergence) [14] | Herbicidal Activity NS (post-emergence) [15] | Herbicidal Activity SMT (post-emergence) [16] | Herbicidal Activity FOX (pre-emergence) [17] | Herbicidal Activity NUT (post-emergence) [18]
O=C1NC(=O)N(C2(OC3CC(F)CC3Cl)C=CC=CC2)C1=O (centres unmarked) [Compound 2, 1-(2-fluoro-4-chloro-5-cyclopentyloxy)phenyl-2,4,5-imidazolidinetrione] | 130 to 140 | – | – | – | – | – | – | – | – | – | – | – | – | – | – | – | – | – | –
COCC1(N2C(=O)NC(=O)C2=O)C=CC=C(OC2CC(F)CC2Cl)C1 (centres unmarked) [Compound 5, 1-methoxymethyl-3-(2-fluoro-4-chloro-5-cyclopentyloxy)phenyl-2,4,5-imidazolidinetrione] | 90 to 91 | – | – | – | – | – | – | – | – | – | – | – | – | – | – | – | – | – | –
C#CCN1C(=O)COc2cc(F)c(N3C(=O)C(=O)N(C)C3=O)cc21 [Compound 22] | – | 0 | 100 | 60 | 40 | 100 | 80 | 40 | 95 | 80 | 85 | 95 | 40 | 0 | 30 | 100 | 90 | 100 | 60
CCCCN1C(=O)C(=O)N(c2cc(OC3CCCC3)c(Cl)cc2F)C1=O [Compound 10] | – | 0 | 0 | 40 | 20 | 100 | 60 | 0 | 0 | 80 | 0 | 0 | 0 | 0 | 30 | 100 | 30 | 0 | 30
COC(=O)c1cc(N2C(=O)C(=O)N(C(C)C)C2=O)c(F)cc1Cl [Compound 18, 1-(2-fluoro-4-chloro-5-methoxycarbonylphenyl)-3-isopropyl-2,4,5-imidazolidinetrione] | – | 0/0 | 0 | 40 | 30 | 95 | 100/100 | 0 | 100 | 60 | 40 | 100/100 | 0 | 0/0 | 0/0 | 95 | 95 | 0 | 0/0
C=CCOc1cc(N2C(=O)C(=O)N(C)C2=O)c(F)cc1Cl [Compound 15] | – | 0/0 | 0 | 30 | 30 | 90 | 85 | 0 | 0 | 30 | 0 | 0 | 0 | 0/0 | 0/0 | 85 | 80 | 0 | 0/0
C#CCN1C(=O)COc2cc(F)c(N3C(=O)C(=O)N(CCC)C3=O)cc21 [Compound 23, 1-n-propyl-3-[7-fluoro-4-(2-propynyl)-2ZH-1,4-benzoxazin-3(4H)-one-6-]-2,4,5-imidazlidinetrione] | – | 95 | 100 | 60 | 0 | 100/100 | 95 | 100/100 | 100/100 | 60 | 100 | 100 | 100 | 90 | 0 | 100/100 | 95 | 100 | 40
CN1C(=O)C(=O)N(c2cc(OC3CCCC3)c(Cl)cc2F)C1=O [Compound 3] | – | 0/0 | 0/0 | 30 | 0/0 | 100 | 80 | 0 | 0 | 60 | 0 | 0 | 0 | 0/0 | 0/0 | 80 | 85 | 0 | 0/0
CCOC(=O)COc1cc(N2C(=O)C(=O)N(C)C2=O)c(F)cc1Cl [Compound 17] | – | 0/0 | 0/0 | 0/0 | 0/0 | 0/0 | 0/0 | 0/0 | 30 | 0/0 | 30 | 0/0 | 0/0 | 30 | 0 | 0 | 0 | 0/0 | 0/0
C#CCOc1cc(N2C(=O)C(=O)N(CCCC)C2=O)c(F)cc1Cl [Compound 14] | – | 0/0 | 0/0 | 30 | 0/0 | 100 | 95 | 0 | 0 | 40 | 0 | 0 | 0 | 0/0 | 0/0 | 100 | 60 | 0 | 0/0
